Test results as given in ChEMBL document CHEMBL4627407, “Identification of a Potent Oridonin Analogue for Treatment of Triple-Negative Breast Cancer” (J Med Chem, 2020).
Activity calls are given as the source filed them. The rule behind the calls is not given here.

Assays:
HCC1806 [1] = experiment: Induction of apoptosis in human HCC1806 cells assessed as late apoptotic cells at 100 uM after 48 hrs by Annexin V-FITC/propidium iodide double staining based flow cytometry (reference value: 0.81%); format: functional
HCC1806 [2] = experiment: Induction of apoptosis in human HCC1806 cells assessed as increase in Bax expression at 50 to 200 nM after 48 hrs by Western blot analysis; format: functional, cell-based
HCC1806 [3] = experiment: Induction of cell death in human HCC1806 cells at 200 nM incubated for 72 hrs in presence of necroptosis inhibitor necrostatin-1 by MTT assay; format: functional, cell-based
HCC1806 [4] = experiment: Induction of apoptosis in human HCC1806 cells assessed as necrotic cells at 200 uM after 48 hrs by Annexin V-FITC/propidium iodide double staining based flow cytometry (reference value: 1.32%); format: functional
HCC1806 [5] = experiment: Induction of cell cycle arrest in human HCC1806 cells assessed as downregulation of cyclin B1 expression by western blot analysis; format: functional, cell-based
HCC1806 [6] = experiment: Induction of intracellular reactive oxygen species generation in human HCC1806 cells at 200 nM incubated for 48 hrs in presence of ROS scavenger N-acetyl cysteine by DCFH2-DA staining based flow cytometeric analysis; format: functional, cell-based
HCC1806 [7] = experiment: Induction of cell cycle arrest in human HCC1806 cells assessed as accumulation at S phase at 100 nM after 48 hrs by propidium iodide staining based FACScan flow cytometry (reference value: 18.89%); format: functional
NCI/ADR-RES [8] = experiment: Potency index, ratio of oridonin IC50 to compound IC50 for antiproliferative activity against human MCF7/ADR cells after 72 hrs by MTT assay; format: functional
HCC1806 [9] = experiment: Induction of intracellular reactive oxygen species generation in human HCC1806 cells assessed as accumulation of DCFH2-DA positive cells at 200 nM incubated for 48 hrs by flow cytometeric analysis (reference value: 3.53%); format: functional
HCC1806 [10] = experiment: Antitumor activity against human HCC1806 cells in ICR mouse assessed as tumor shrinkage at 12.5 to 25 mg/kg, iv administered once per day for 23 consecutive days by Ki67 staining-based immunohistochemical analysis; format: functional, organism-based
SK-BR-3 = experiment: Antiproliferative activity against human SK-BR-3 cells after 72 hrs by MTT assay; format: functional, cell-based; conditions: SK-BR-3, 72 h
HCC1806 [11] = experiment: Antitumor activity against human HCC1806 cells in ICR mouse assessed as tumor shrinkage at 12.5 to 25 mg/kg, iv administered once per day for 23 consecutive days by TUNEL based immunohistochemical analysis; format: functional, organism-based
HCC1937 = experiment: Antiproliferative activity against human HCC1937 cells after 72 hrs by MTT assay; format: functional, cell-based; conditions: HCC1937, 72 h
HCC1806 [12] = experiment: Induction of cell cycle arrest in human HCC1806 cells assessed as accumulation at S phase at 50 nM after 48 hrs by propidium iodide staining based FACScan flow cytometry (reference value: 18.89%); format: functional
HCC1806 [13] = experiment: Induction of apoptosis in human HCC1806 cells assessed as increase in Bad expression at 50 to 200 nM after 48 hrs by Western blot analysis; format: functional, cell-based
HCC1806 [14] = experiment: Induction of cell cycle arrest in human HCC1806 cells assessed as accumulation at G2/M phase at 100 nM after 48 hrs by propidium iodide staining based FACScan flow cytometry (reference value: 10.38%); format: functional
HCC1806 [15] = experiment: Induction of cell cycle arrest in human HCC1806 cells assessed as accumulation at G2/M phase at 200 nM after 48 hrs by propidium iodide staining based FACScan flow cytometry (reference value: 10.38%); format: functional
HCC1806 [16] = experiment: Induction of cell cycle arrest in human HCC1806 cells assessed as accumulation at G1 phase at 200 nM after 48 hrs by propidium iodide staining based FACScan flow cytometry (reference value: 70.74%); format: functional
[17] = Inhibition of PI3K/Akt/mTOR signalling pathway in human HCC1806 cells assessed as reduction in phosphorylated Akt expression at S473 residue after 48 hrs by Western blot analysis; format: cell-based
HCC1806 [18] = experiment: Induction of cell cycle arrest in human HCC1806 cells assessed as accumulation at G1 phase at 50 nM after 48 hrs by propidium iodide staining based FACScan flow cytometry (reference value: 70.74%); format: functional
HCC1806 [19] = experiment: Antimigratory activity against human HCC1806 cells measured up to 48 hrs by phase contrast microscopic based scratch wound healing assay; format: functional, cell-based
HCC1806 [20] = experiment: Antiproliferative activity against human HCC1806 cells after 72 hrs by MTT assay; format: functional, cell-based; conditions: HCC1806, 72 h
HCC1806 [21] = experiment: Induction of apoptosis in human HCC1806 cells assessed as early apoptotic cells at 50 uM after 48 hrs by Annexin V-FITC/propidium iodide double staining based flow cytometry (reference value: 2.16%); format: functional
HCC1806 [22] = experiment: Antitumor activity against human HCC1806 cells in ICR mouse assessed as reduction in tumor weight at 25 mg/kg, iv administered once per day for 23 consecutive days and measured every 2 days relative to control; format: functional; parameters: scale not given: the % may be the effect or the level left
NCI/ADR-RES [23] = experiment: Antiproliferative activity against human MCF7/ADR cells after 72 hrs by MTT assay; format: functional, cell-based
HCC1806 [24] = experiment: Induction of cell cycle arrest in human HCC1806 cells assessed as accumulation at G2/M phase at 50 nM after 48 hrs by propidium iodide staining based FACScan flow cytometry (reference value: 10.38%); format: functional
HCC1806 [25] = experiment: Inhibition of cell invasion in human HCC1806 cells at 100 to 200 nM incubated for 48 hrs by crystal violet staining based matrigel coated transwell assay; format: functional
HCC1806 [26] = experiment: Induction of apoptosis in human HCC1806 cells assessed as early apoptotic cells at 200 uM after 48 hrs by Annexin V-FITC/propidium iodide double staining based flow cytometry (reference value: 2.16%); format: functional
HCC1806 [27] = experiment: Induction of apoptosis in human HCC1806 cells assessed as necrotic cells at 50 uM after 48 hrs by Annexin V-FITC/propidium iodide double staining based flow cytometry (reference value: 1.32%); format: functional
[28] = biological target: Focal adhesion kinase 1 (Homo sapiens) (UniProt Q05397); experiment: Inhibition of FAK phosphorylation at Tyr397 residue in human HCC1806 cells at 50 to 200 nM after 48 hrs by Western blot analysis; format: cell-based
Chain of Focal adhesion kinase 1 (Homo sapiens) (Q05397 2-1052 limits assumed): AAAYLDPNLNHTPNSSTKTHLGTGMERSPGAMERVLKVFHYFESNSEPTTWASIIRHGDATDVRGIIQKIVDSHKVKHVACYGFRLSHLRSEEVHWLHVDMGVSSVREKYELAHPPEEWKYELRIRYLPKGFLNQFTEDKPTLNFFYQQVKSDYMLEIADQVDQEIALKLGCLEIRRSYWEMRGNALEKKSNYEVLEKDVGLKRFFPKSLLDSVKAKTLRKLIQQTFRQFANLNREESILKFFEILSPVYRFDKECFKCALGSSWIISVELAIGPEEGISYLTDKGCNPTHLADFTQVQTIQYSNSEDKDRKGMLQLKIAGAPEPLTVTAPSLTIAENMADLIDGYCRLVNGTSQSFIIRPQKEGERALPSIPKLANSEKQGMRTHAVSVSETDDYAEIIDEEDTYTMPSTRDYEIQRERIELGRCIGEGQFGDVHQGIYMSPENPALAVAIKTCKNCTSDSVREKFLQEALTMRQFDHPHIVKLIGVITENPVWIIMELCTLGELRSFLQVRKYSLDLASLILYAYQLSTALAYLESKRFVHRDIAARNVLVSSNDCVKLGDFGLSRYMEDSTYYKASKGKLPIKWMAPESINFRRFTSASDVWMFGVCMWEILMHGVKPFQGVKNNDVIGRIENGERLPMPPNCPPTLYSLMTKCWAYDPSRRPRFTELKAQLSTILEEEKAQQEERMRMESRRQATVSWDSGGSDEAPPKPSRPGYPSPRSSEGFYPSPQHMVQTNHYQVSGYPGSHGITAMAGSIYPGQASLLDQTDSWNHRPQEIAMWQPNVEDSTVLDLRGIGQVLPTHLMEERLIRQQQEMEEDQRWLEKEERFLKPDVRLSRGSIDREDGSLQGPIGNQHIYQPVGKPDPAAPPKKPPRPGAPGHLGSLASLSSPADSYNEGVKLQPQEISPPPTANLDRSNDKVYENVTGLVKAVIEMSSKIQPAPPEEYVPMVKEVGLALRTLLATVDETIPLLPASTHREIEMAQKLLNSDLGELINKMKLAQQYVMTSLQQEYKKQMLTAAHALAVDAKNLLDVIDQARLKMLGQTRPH

HCC1806 [29] = experiment: Induction of cell death in human HCC1806 cells at 200 nM incubated for 72 hrs in presence of caspase inhibitor z-VAD by MTT assay; format: functional, cell-based
HCC1806 [30] = experiment: Induction of apoptosis in human HCC1806 cells assessed as late apoptotic cells at 200 uM after 48 hrs by Annexin V-FITC/propidium iodide double staining based flow cytometry (reference value: 0.81%); format: functional

Compound: C=C1C(=O)[C@@]23C(=O)[C@@H]4OC[C@]5(C=CCC(C)(C)[C@@H]45)[C@@H]2CC[C@@H]1[C@H]3OC(=O)/C=C/c1ccncc1
- Activity (HCC1806 [1]): 3.61%
- Activity (HCC1806 [2]): Active
- Activity (HCC1806 [3]): Active
- Activity (HCC1806 [4]): 4.32%
- Activity (HCC1806 [5]): Dose-dependent effect
- Activity (HCC1806 [6]): inactive
- Activity (HCC1806 [7]): 19.13%
- Ratio IC50 (NCI/ADR-RES [8]): 20
- Activity (HCC1806 [9]): 45.87%
- Activity (HCC1806 [10]): Active
- IC50 (SK-BR-3): 220 nM
- Activity (HCC1806 [11]): Active
- IC50 (HCC1937): 280 nM
- Activity (HCC1806 [12]): 18.24%
- Activity (HCC1806 [13]): Active
- Activity (HCC1806 [14]): 20.26%
- Activity (HCC1806 [15]): 24.28%
- Activity (HCC1806 [16]): 54.97%
- inhibition [17]: Dose-dependent effect
- Activity (HCC1806 [18]): 65.83%
- Activity (HCC1806 [19]): Dose-dependent effect
- IC50 (HCC1806 [20]): 180 nM
- Activity (HCC1806 [21]): 14.87%
- Activity (HCC1806 [22]): 74.1%
- IC50 (NCI/ADR-RES [23]): 1380 nM
- Activity (HCC1806 [24]): 15.94%
- inhibition (HCC1806 [25]): Active
- Activity (HCC1806 [26]): 22.49%
- Activity (HCC1806 [27]): 0.46%
- inhibition [28]: Active
- Activity (HCC1806 [29]): inactive
- Activity (HCC1806 [30]): 22.79%
